The values below come from patent EP4349409A1, “COMPOUNDS FOR THE MANAGEMENT OF CELL STEMNESS AND INVASION IN CANCER AND RELATED DISEASES” (Instituto Biomar S.A., priority 2022, dated 2024).

Experiment [1] concerns TAp73. In words: Western blot of endogenous TAp73 protein in U373 and T98G glioblastoma cell lines. It counts as cell-based, human. As to conditions: 72 h, BMT9 9 and 18 µM, TMZ 350 µM, BCNU 150 µM. How it is done:
Next, we compared the effect of BMT9 and TMZ or BCNU treatments on endogenous TAp73 protein levels in U373 and T98G glioblastoma cell lines (Figure 2F and G). Cells were treated for 72 h either with BMT9 at 9 and 18 µM, or with TMZ and BCNU at the standard concentrations referred in other articles (350 µM and 150 µM, respectively). Protein extracts were obtained and analyzed by Western blot using a TAp73 specific antibody and GAPDH as a loading control. Densitometric quantification of the obtained blots are represented in Figure 2F and G (Y axis, ratio of TAp73/GAPDH band intensity and X axis, indicated treatments).
For orientation: A western blot detects proteins with antibodies after separation by electrophoresis.

Experiment [2] deals with transcript levels originated from the P1-TP73 promoter (TAp73, ΔEx2p73 and ΔEx2/3p73). Briefly: qRT-PCR of P1-TP73 promoter transcripts in G144 cells. It counts as cell-based, human. As to conditions: G144, 72 h, dose dependent. From the text: As before, all isoforms were reduced by treatment, with TAp73 and ΔEx2/3p73 being the predominant isoforms, while ΔN'p73 was barely detected (Figure 4A). Ribosomal RNA 18S was used as housekeeping control, and all expression levels were normalized to the TAp73 NT value.

Experiment [3] relates to TAp73. In words: Western blot of endogenous TAp73 protein in glioblastoma stem cells G144 and G179. Type of experiment: cell-based, human. Conditions: G144 and G179, 72 h; BMT9 2.25 µM, TMZ 350 µM, BCNU 150 µM. How it is done:
To specifically address BMT9 effect on endogenous TAp73 protein levels, we performed a Western blot analysis using an anti-TA-specific antibody. Cells were treated for 72 h either with a low dose of BMT9 (2.25 µM), or with TMZ and BCNU at the standard concentrations used in other articles (350 µM and 150 µM, respectively). Protein extracts were obtained and analyzed by Western blot (Figure 4B-C) and densitometric quantification of the autoradiographies was carried out. The ratio of TAp73/GAPDH band intensity was calculated and protein expression levels relative to non-treated (NT) cells were represented (Y axis).

A further experiment relates to T98G. In words: MTT-based cytotoxicity assay, T98G. As to conditions: Homo sapiens, 72 h. Type of experiment: cell-based. How it is done:
A dose-response analysis of BMT9 (concentrations ranging from 4.5 µM-18 µM), BCNU (from 150 µM-500 µM) and TMZ (350 µM-700 µM) was performed in two conventional glioblastoma cell lines (T98G, U373) and the GNS cell line G144 by MTT-based cytotoxicity assays (Figure 5A-D). Cells were seeded on p96-well plates and treated with the different compounds for 72 h. Then, the MTT reagent (3-(4,5-Dimethyl-2-thiazolyl)-2,5-diphenyl-2H-tetrazolium bromide diluted in PBS to a concentration of 1mg/ml), was added to each well to a final concentration of 0.33mg/ml, and incubated for 3 h at 37°C. After that, the media was removed, and formazan crystals were solubilized with DMSO. Absorbance was measured at 560 nm using a "Synergy HT" plate reader (Biotek). In the graphs, the Y axis represents the percentage of cell viability relative to non-treated cells. The IC50, when reached are marked by a rectangle. DMSO treatment had no effect on cell viability.

The test system of another experiment is GNSCs. In words: Sphere-forming clonogenic assay of GNSCs. It counts as cell-based. Conditions: 4.5 µM and 9 µM, sphere forming conditions (data not shown). How it is done: To further investigate whether BMT9 reduced stemness potential of the GNSCs, we performed a sphere-forming clonogenic assay. Cells were seeded on sphere forming conditions, that is 40,000 cells/ml without laminin coating. Cells were treated with BMT9 at 4.5 µM and 9 µM 24 h after seeding.

The test system of another experiment is G144-GNSC cells. In words: Transcriptome comparison (DESeq2) of G144-GNSC cells after treatment. Type of experiment: cell-based, human. As to conditions: DESeq2, p-adj<0.01, treated vs non-treated G144-GNSC. The text has this: Finally, to elucidate the molecular basis of BMT9 effect on the stemness potential of the GNSCs, we compared the transcriptome of non-treated G144-GNSC cells with those after BMT9 treatment. The DESeq2 analysis identified 6163 differentially expressed genes (DEGs) with a p-adj<0.01. […] Among the found DEGs we found GSC markers like PROM1(CD133), LGR5, or SOX1 and SOX4, as well as key regulators involved in maintenance of the cancer cell stemness state like SOX9 (Wang et al., 2018)(Aldaz et al., 2020), CDC20 (Gujar et al., 2016) or AURKA, known to govern self-renewal capacity in glioma-initiating cells via stabilization/activation of β-catenin/Wnt signaling (Xia et al., 2013) and proposed, together with CCNA2, and TPX2, as ideal drug targets in GBM (Du et al., 2020). Table 3. Correlation of GNSCs transcriptomic profiles after BMT9 treatment with published gene signatures of stemness.

Experiment [4] deals with G144 cells. Briefly: Proliferation rate analysis by p-His-3 immunostaining in G144 cells. As to conditions: G144, 4.5 µM, 72 h (data not shown). Type of experiment: cell-based, human. The text has this:
It is noteworthy that G144 cells proliferate very slowly and, at maintenance culture conditions, about 90% of the cells are in G1 phase of the cell cycle (data not shown).

In experiment [5] the test system is invasiveness-related genes. Briefly: qRT-PCR of invasiveness-related genes in G144 cells. Type of experiment: cell-based, human. As to conditions: G144, 4.5 µM, 72 h. How it is done:
For expression analysis, G144 cells were treated with BMT9 (4.5 µM) and after 72 h mRNA was extracted and qRT-PCR was performed.

In another experiment the test system is G179. In words: Scratch (wound healing) assay, G179. As to conditions: G179, 4.5µM, 24 h. It counts as cell-based. How it is done: The effect of BMT9 in cell migration was evaluated using scratch assays, also known as wound healing assays. Cells were seeded in culture inserts for wound healing assays (Ibidi) at a cell density of 35,000 cells/cm^2; 24 h later the insert was removed to create the wound, and fresh medium was added with the corresponding treatment. Microscopy images were acquired at the time of treatment and 24 h later, using a Leica DMI3000 phase contrast microscope. Analysis was performed using the ImageJ software (Schindelin et al., 2012) and the MRI wound healing tool plugin (Suarez-Arnedo et al., 2020). Cell-free area was measured at the two indicated time points and the wound closure percentage relative to the starting point was calculated for each well individually. This assay was performed in G144 and in G179 cells (Figure 10 B and C, respectively).

Experiment [6] deals with G144 cells. Briefly: 3D spheroid cell-invasion assay in Matrigel, G144. Type of experiment: cell-based, human. Conditions: 24 h. How it is done:
A hallmark of glioblastoma cell infiltration through a 3D environment is the extension of long, thin polarized membrane extensions that explore and penetrate the surrounding environment. The 3D spheroid cell-invasion model consists in generating cell spheroids by suspension culture that are subsequently embedded in a 3D matrix. G144 cells were seeded on non-adherent conditions (without laminin coating) at a cell concentration of 40,000 cells/ml. After 8 days, spheres were embedded in a 2:1 mixture of Matrigel and growth media. Matrigel mix was let to polymerize at 37°C for 30 minutes, and then it was covered with growth media. Migration was monitored by phase-contrast microscopy for 24 h and the area of each sphere at the initial and final time points was measured using the ImageJ software, in order to calculate the ratio between both areas (Figure 10D, Y axis).

A value given as a limit tells only on which side of the number the result lay.

As usually defined, the IC50 is the midpoint of a concentration-inhibition curve. On to `C=C1C2CCC(C)(C3COc4c(C)c(OC)c5c(c4C3O)C(O)OC5=O)C1CCC2(C)C` (stereo not shown) [BMT9], for which the “endogenous TAp73 protein levels (TAp73/GAPDH)” value with TAp73 [1] was “efficiently reduced endogenous TAp73 expression”; in the experiment on TAp73 [3], “reduced effectively TAp73 expression”. Further, the “transcript levels originated from the P1-TP73 promoter (TAp73, ΔEx2p73 and ΔEx2/3p73)” value in [2] is listed as “downregulated”. In addition, in the experiment with T98G, the half-inhibitory concentration (IC50) was greater than 9 µM. Further, the sphere generation result in the experiment on GNSCs is reported as “reduce sphere generation in a dose dependent manner”. For the same compound, the “differentially expressed genes (DEGs)” value with G144-GNSC cells is listed as 6163. The “percentage of cells in mitosis” value with G144 cells [4] came out at 0.1%. Also, the “expression of a set of invasiveness-related genes” value in experiment [5] is given as “downregulation of all the analyzed genes”. Also, in the experiment with G179, the “cell migration (wound closure)” value is reported as “significantly impaired cell migration”. In addition, the “invasion of cells within the matrix surrounding the spheres” value in the experiment with G144 cells [6] is given as “significantly impaired the invasion of cells”.
